Consider nine compounds from ChEMBL document CHEMBL5441442, “ASAP - In vitro cardiotoxicity” (2024).

Holding throughout (format): toxicity, cell-based, Cricetulus griseus, CHO
Data set [1] addresses Sodium channel protein type 5 subunit alpha (Homo sapiens, UniProt Q14524). Nature of the data set: (§1) Compounds were solubilised to 10 mM in DMSO and diluted in HBPS to 30 mM. 6-Point concentration-response curves were generated using serial dilutions from the top test concentration. Electrophysiological recordings were made from a Chinese Hamster Ovary cell line stably expressing the full-length ion channel. Single cell ionic currents were measured in whole-cell configuration at room temperature. The internal solution for hNaV1.5 is buffered to pH 7.3, and the external solution is buffered to pH 7.4. The test pulse was applied according to voltage protocol. Compounds were incubated for 2 min to allow stabilization of the parameters. Concentration-response curves were generated by cumulative addition of compound with concentrations low to high. In all cases, steady-state inhibition was achieved before the next concentration of compound was added. To investigate any use-dependence, an 8-pulse voltage protocol is applied at a frequency of 3 Hz. Inhibition is compared at pulse 1 and pulse 8. Any difference in the potency of a compound at P8 versus P1 would be typical of use-dependent block. IC50 values or % inhibition at the top test concentration is obtained. The assay has been performed by Concept Life Sciences Ltd. The conditions noted are these: for Inhibition: chinese hamster, cho, pH 7.3, 2 min, 2 min, top test concentration 30 uM.

For data set [2], the target named is NaV1.5 (sodium channel protein type 5 subunit alpha) (Homo sapiens, UniProt Q14524). The data set is described as §1. The following applies: chinese hamster, CHO cells stably expressing full-length hNaV1.5, pH 7.3; top test concentration 30 uM.
Chain of NaV1.5 (sodium channel protein type 5 subunit alpha) (Q14524 whole entry): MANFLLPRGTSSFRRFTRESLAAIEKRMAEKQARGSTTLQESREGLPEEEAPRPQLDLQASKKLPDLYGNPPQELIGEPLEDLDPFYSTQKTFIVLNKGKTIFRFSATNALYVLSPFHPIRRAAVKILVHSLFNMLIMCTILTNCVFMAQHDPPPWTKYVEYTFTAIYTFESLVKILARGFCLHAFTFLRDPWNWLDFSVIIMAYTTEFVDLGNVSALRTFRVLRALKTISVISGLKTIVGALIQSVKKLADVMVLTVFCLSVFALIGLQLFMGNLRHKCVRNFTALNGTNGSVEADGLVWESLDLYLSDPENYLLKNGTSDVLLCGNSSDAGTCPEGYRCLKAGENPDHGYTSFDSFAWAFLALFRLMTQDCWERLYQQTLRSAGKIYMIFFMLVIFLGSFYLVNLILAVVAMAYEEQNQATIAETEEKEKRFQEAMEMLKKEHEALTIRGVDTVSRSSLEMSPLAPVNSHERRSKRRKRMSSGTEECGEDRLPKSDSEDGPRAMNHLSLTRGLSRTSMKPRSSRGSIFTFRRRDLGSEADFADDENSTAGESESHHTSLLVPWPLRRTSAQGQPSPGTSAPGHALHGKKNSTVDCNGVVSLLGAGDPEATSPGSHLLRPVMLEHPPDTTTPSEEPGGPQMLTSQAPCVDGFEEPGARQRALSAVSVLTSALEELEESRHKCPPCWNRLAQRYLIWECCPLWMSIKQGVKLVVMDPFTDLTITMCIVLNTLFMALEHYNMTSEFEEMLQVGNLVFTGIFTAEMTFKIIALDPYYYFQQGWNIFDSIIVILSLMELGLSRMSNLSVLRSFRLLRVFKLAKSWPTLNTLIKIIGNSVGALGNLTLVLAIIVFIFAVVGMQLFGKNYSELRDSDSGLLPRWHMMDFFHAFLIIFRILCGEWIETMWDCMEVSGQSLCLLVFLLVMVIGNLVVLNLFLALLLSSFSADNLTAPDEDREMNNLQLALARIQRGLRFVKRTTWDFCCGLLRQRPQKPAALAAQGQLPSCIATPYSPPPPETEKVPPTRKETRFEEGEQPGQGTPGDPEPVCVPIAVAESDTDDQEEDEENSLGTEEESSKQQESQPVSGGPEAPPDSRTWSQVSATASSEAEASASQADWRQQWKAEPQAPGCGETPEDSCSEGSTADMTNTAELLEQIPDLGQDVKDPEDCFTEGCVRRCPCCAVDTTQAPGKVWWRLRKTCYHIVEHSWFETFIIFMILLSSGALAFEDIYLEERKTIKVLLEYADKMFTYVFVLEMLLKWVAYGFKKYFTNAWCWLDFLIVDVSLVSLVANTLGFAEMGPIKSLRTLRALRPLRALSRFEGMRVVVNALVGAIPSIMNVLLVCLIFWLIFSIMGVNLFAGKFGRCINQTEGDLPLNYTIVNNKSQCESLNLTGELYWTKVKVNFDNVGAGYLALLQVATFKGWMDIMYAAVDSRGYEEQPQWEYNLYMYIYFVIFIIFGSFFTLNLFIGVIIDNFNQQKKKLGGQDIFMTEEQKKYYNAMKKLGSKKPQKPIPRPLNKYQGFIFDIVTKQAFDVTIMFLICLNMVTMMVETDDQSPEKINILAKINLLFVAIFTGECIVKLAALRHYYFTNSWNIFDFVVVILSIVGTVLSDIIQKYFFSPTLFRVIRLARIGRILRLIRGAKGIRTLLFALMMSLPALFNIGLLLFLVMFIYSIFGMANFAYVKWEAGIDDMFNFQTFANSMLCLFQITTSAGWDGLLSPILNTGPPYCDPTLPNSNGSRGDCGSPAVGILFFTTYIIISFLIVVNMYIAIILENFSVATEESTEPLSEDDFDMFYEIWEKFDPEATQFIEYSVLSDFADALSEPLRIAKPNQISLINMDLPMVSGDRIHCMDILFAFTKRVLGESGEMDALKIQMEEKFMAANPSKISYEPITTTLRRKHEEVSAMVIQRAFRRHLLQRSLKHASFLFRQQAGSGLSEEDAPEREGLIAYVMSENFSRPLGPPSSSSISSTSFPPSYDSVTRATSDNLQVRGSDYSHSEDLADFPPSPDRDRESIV
Data set [3] deals with Voltage-gated inwardly rectifying potassium channel KCNH2 (Homo sapiens, UniProt Q12809). The description is as §1, with “recordings are” for “recordings were”, “currents are” for “currents were”, “for hERG” for “for hNaV1.5”, “added.” for “added. To investigate any use-dependence, an 8-pulse voltage protocol is applied at a frequency of 3 Hz. Inhibition is compared at pulse 1 and pulse 8. Any difference in the potency of a compound at P8 versus P1 would be typical of use-dependent block.”, “% of” for “%”, “at” for “at the”.

The target of the next data set is hERG (KCNH2) (Homo sapiens, UniProt Q12809). Described as above. The conditions noted are these: chinese hamster, CHO cells stably expressing full-length hERG, pH 7.3; top test concentration 30 uM. On the technique in general: hERG is a cardiac potassium channel; its block is linked to QT prolongation.

Chain of Sodium channel protein type 5 subunit alpha (Q14524 whole entry): as above

By IC50 is commonly meant the concentration needed to halve the response being measured. Lower therefore signals greater potency. As a reminder, the Inhibition is the share of the control response that was lost under treatment. A low value points to a weak effect. What is called inhibition is the change of the read-out against control, counted positive when it falls. Low readings indicate a response near the control, high ones a response far below the control. For `Cn1ncc(-c2cc3c(N[C@@H](c4ccc5c(n4)OCCO5)C(C)(C)C)ncnc3[nH]2)c1C#N`, the values for the IC50 in data set [1] and in data set [3] were > 30 µM and 19.5 µM, respectively. Also, the Inhibition in data set [1] is listed as 21%. Further, the inhibition at 2 min in data set [2] worked out at 17%.
For `CC(C)[C@@H](Nc1ncnc2[nH]c(C(=O)N[C@@H]3CCN(C)C3)cc12)c1ccc2c(c1)S(=O)(=O)CCC2`, the concentration for half-maximal inhibition (IC50) in data set [1] and in data set [3] was > 30 µM in each case. In addition, the inhibition at 2 min in data set [2] is 11%. In addition, in data set [3] (chinese hamster, cho, pH 7.3, 2 min, 2 min, top test concentration 30 uM), the Inhibition was determined as 18%.
On to `COc1ccc([C@H](Cc2nnn[nH]2)NC(=O)c2ncnc3[nH]ccc23)cc1`, for which the IC50 in data set [1] and in data set [3] was > 30 µM each time. The same compound yielded an Inhibition in data set [1] of 8%. Moreover, the inhibition at 2 min stood at 9% in data set [2] and 27% at hERG (KCNH2).
Consider `CNCc1cc(-c2cc3c(N[C@@H](c4ccc5c(c4)S(=O)(=O)CCC5)C(C)C)ncnc3[nH]2)co1`, for which the IC50 in data set [1] and in data set [3] was > 30 µM in each case. The compound further came in with an Inhibition in data set [1] of 16%. The inhibition at 2 min in data set [2] is 10%; at hERG (KCNH2), 26%.
`C[C@H](C(=O)O)[C@@H](NC(=O)c1ncnc2[nH]ccc12)c1ccc(Br)cc1`: the IC50 in data set [1] and in data set [3] was > 30 µM in each case. The compound further yielded an Inhibition in data set [1] of 16%. For the same compound, the results for the inhibition at 2 min (in data set [2]; against hERG (KCNH2)) were 18% and 28%, respectively.
Take `CNC(=O)Cn1cc(-c2cc3c(N[C@@H](c4ccc5c(c4)S(=O)(=O)CCC5)C(C)C)ncnc3[nH]2)cn1`: the IC50 in data set [1] and in data set [3] was > 30 µM each time. The compound also registered an Inhibition in data set [1] of 26%. Moreover, the inhibition at 2 min in data set [2] turned out to be 15%; on hERG (KCNH2) it was 23%.
As to `CC(C)[C@@H](Nc1ncnc2[nH]c(-c3cnn(C)c3C#N)cc12)c1ccc2c(n1)OCCO2`, in data set [1], the IC50 was > 30 µM and the Inhibition worked out at 25%. This compound showed an inhibition at 2 min in data set [2] of 27%. In data set [3], this compound had an IC50 of 10.1 µM.
For `CC(C)[C@H](Nc1ncnc2[nH]c(-c3cnn(C)c3C#N)cc12)c1ccc2c(n1)OCCO2`, in that order: > 30 µM, 35%, 33% and 11 µM.
Turning to `CC(C)[C@H](Nc1ncnc2[nH]ccc12)c1ccc2c(c1)S(=O)(=O)CCC2`, the IC50 in data set [1] and in data set [3] was > 30 µM in each case. This compound returned an Inhibition in data set [1] of 29%. For the same compound, the inhibition at 2 min worked out at 19% in data set [2] and 39% against hERG (KCNH2).
